Results from PubChem BioAssay AID248 (DTP/NCI, 2004).
Where “and” joins values, the source holds several entries; their conditions need not be identical. Identical values can stand only once. Inconclusive results and toxic doses are left out. No stated cut-off is given here; in the data, active means T/C of 150% or more; inactive means T/C below 125%.

Tested on: L1210 leukemia ip in BDF1 mice, survival T/C
Assay: NCI In Vivo Anticancer Drug Screen. Data for tumor model L1210 Leukemia (intraperitoneal) in B6D2F1 (BDF1) mice
Settings: endpoint: mean survival time, higher = longer survival
How it was run: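 Mice bearing the transplanted tumor received compound or vehicle. Survival of the treated group was divided by that of the vehicle-treated control group to give the ratio.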

[1] = dose: 200.0 mg/kg/injection, schedule: Q01DX001 (ip), vehicle: saline with Tween-80
[2] = dose: 400.0 mg/kg/injection, schedule: Q01DX001 (ip), vehicle: saline with Tween-80
[3] = dose: 100.0 mg/kg/injection, schedule: Q01DX001 (ip), vehicle: saline
[4] = dose: 200.0 mg/kg/injection, schedule: Q01DX001 (ip), vehicle: saline
[5] = dose: 400.0 mg/kg/injection, schedule: Q01DX001 (ip), vehicle: saline
[6] = dose: 100.0 mg/kg/injection, schedule: Q01DX001 (ip), vehicle: Klucel (hydroxypropylcellulose) (HPC)
[7] = dose: 200.0 mg/kg/injection, schedule: Q01DX001 (ip), vehicle: Klucel (hydroxypropylcellulose) (HPC)
[8] = dose: 400.0 mg/kg/injection, schedule: Q01DX001 (ip), vehicle: Klucel (hydroxypropylcellulose) (HPC)
[9] = dose: 100.0 mg/kg/injection, schedule: Q04DX003 (ip), vehicle: Klucel (hydroxypropylcellulose) (HPC)
[10] = dose: 200.0 mg/kg/injection, schedule: Q04DX003 (ip), vehicle: Klucel (hydroxypropylcellulose) (HPC)
[11] = dose: 400.0 mg/kg/injection, schedule: Q04DX003 (ip), vehicle: Klucel (hydroxypropylcellulose) (HPC)
[12] = dose: 100.0 mg/kg/injection, schedule: Q01DX001 (ip), vehicle: saline with Tween-80
[13] = dose: 100.0 mg/kg/injection, schedule: Q01DX009 (ip), vehicle: saline with Tween-80
[14] = dose: 200.0 mg/kg/injection, schedule: Q01DX009 (ip), vehicle: saline with Tween-80
[15] = dose: 400.0 mg/kg/injection, schedule: Q01DX009 (ip), vehicle: saline with Tween-80
[16] = dose: 50.0 mg/kg/injection, schedule: Q04DX003 (ip), vehicle: saline
[17] = dose: 100.0 mg/kg/injection, schedule: Q01DX009 (ip), vehicle: saline
[18] = dose: 100.0 mg/kg/injection, schedule: Q04DX003 (ip), vehicle: saline
[19] = dose: 200.0 mg/kg/injection, schedule: Q01DX009 (ip), vehicle: saline
[20] = dose: 400.0 mg/kg/injection, schedule: Q01DX009 (ip), vehicle: saline
[21] = dose: 100.0 mg/kg/injection, schedule: Q04DX003 (ip), vehicle: saline with Tween-80
[22] = dose: 75.0 mg/kg/injection, schedule: Q01DX001 (ip), vehicle: carboxymethylcellulose (CMC)
[23] = dose: 150.0 mg/kg/injection, schedule: Q01DX001 (ip), vehicle: carboxymethylcellulose (CMC)
[24] = dose: 300.0 mg/kg/injection, schedule: Q01DX001 (ip), vehicle: carboxymethylcellulose (CMC)

Measured: T/C

Clc1ccc(-c2oc(-c3ccc(Cl)cc3)c3c2CC=CC3)cc1
inactive: dose: 100.0 mg/kg/injection, schedule: Q04DX003 (ip), vehicle: gum acacia 93 % of control | dose: 200.0 mg/kg/injection, schedule: Q04DX003 (ip), vehicle: gum acacia 106 % of control | dose: 400.0 mg/kg/injection, schedule: Q04DX003 (ip), vehicle: gum acacia 97 % of control

Cc1c[n+]([O-])ccc1N=NN(C)c1ccccc1C
inactive: dose: 18.75 mg/kg/injection, schedule: Q04DX002 (ip), vehicle: saline with Tween-80 102 % of control | dose: 37.5 mg/kg/injection, schedule: Q04DX002 (ip), vehicle: saline with Tween-80 105 % of control | dose: 75.0 mg/kg/injection, schedule: Q04DX002 (ip), vehicle: saline with Tween-80 102 % of control | dose: 200.0 mg/kg/injection, schedule: Q04DX002 (ip), vehicle: saline with Tween-80 86 % of control

Cc1[nH]c(C(=O)OCc2ccccc2)c(C)c1C(=O)OCc1ccccc1
inactive: dose: 12.0 mg/kg/injection, schedule: Q01DX001 (ip), vehicle: Klucel (hydroxypropylcellulose) (HPC) 94 % of control | dose: 25.0 mg/kg/injection, schedule: Q01DX001 (ip), vehicle: Klucel (hydroxypropylcellulose) (HPC) 100 % of control | dose: 50.0 mg/kg/injection, schedule: Q01DX001 (ip), vehicle: Klucel (hydroxypropylcellulose) (HPC) 97 % of control | [1] 102 % of control | [2] 102 % of control

O=S(=O)(c1ccccc1)C1CN=NC1c1ccccc1 (configuration not stated)
inactive: dose: 50.0 mg/kg/injection, schedule: Q01DX009 (ip), vehicle: acetone 95 % of control | [3] 100 % of control | dose: 100.0 mg/kg/injection, schedule: Q01DX009 (ip), vehicle: acetone 93 % of control | [4] 94 % of control | dose: 200.0 mg/kg/injection, schedule: Q01DX009 (ip), vehicle: acetone 92 % of control | [5] 96 % of control

O=C(Nc1ccccc1)Oc1cccnc1
inactive: [6] 98 % of control | [7] 100 % of control | [8] 98 % of control

COc1cc(C)c2c(c1)C(=O)OC2=O
inactive: [6] 105 % of control | [9] 100 % of control | [7] 108 % of control | [10] 103 % of control | [8] 111 % of control | [11] 97 % of control

F[Si]1(c2cccc(Br)c2)c2ccccc2-c2ccccc21
inactive: [12] 103 % of control | [13] 103 % of control | [1] 100 % of control | [14] 101 % of control | [2] 100 % of control | [15] 104 % of control

N#CCCNC=O
inactive: dose: 100.0 mg/kg/injection, schedule: Q04DX002 (ip), vehicle: saline 109 % of control | dose: 200.0 mg/kg/injection, schedule: Q04DX002 (ip), vehicle: saline 98 % of control | dose: 400.0 mg/kg/injection, schedule: Q04DX002 (ip), vehicle: saline 109 % of control

O=C1CNC(=O)N1CCCl
inactive: [16] 100 % of control | [17] 100 % of control | [18] 103 % of control | [19] 104 % of control | [20] 113 % of control | dose: 400.0 mg/kg/injection, schedule: Q04DX003 (ip), vehicle: saline 94 % of control

CC(C)C(Sc1nc(N)nc2nc[nH]c12)C(=O)O (configuration not stated)
inactive: [3] 98 % of control | dose: 100.0 mg/kg/injection, schedule: Q01DX009 (ip), vehicle: saline sonified 94 % of control | [9] 96 % of control | [4] 96 % of control | dose: 200.0 mg/kg/injection, schedule: Q01DX009 (ip), vehicle: saline sonified 106 % of control | [10] 100 % of control | [5] 102 % of control | dose: 400.0 mg/kg/injection, schedule: Q01DX009 (ip), vehicle: saline sonified 100 % of control | [11] 98 % of control

COc1ccc(OC)c(C(=O)CCCCC(=O)O)c1
inactive: [9] 95 % of control | [10] 93 % of control | [11] 104 % of control

O=[N+]([O-])c1csc2ccccc12
inactive: dose: 12.5 mg/kg/injection, schedule: Q01DX009 (ip), vehicle: Klucel (hydroxypropylcellulose) (HPC) 97 % of control | dose: 25.0 mg/kg/injection, schedule: Q01DX009 (ip), vehicle: Klucel (hydroxypropylcellulose) (HPC) 90 % of control | dose: 50.0 mg/kg/injection, schedule: Q01DX009 (ip), vehicle: Klucel (hydroxypropylcellulose) (HPC) 90 % of control | dose: 100.0 mg/kg/injection, schedule: Q01DX009 (ip), vehicle: Klucel (hydroxypropylcellulose) (HPC) 105 % of control

CC1CCC(N=S=O)CC1 (configuration not stated) (tested in a mixture with another compound)
inactive: dose: 18.75 mg/kg/injection, schedule: Q01DX009 (ip), vehicle: saline with Tween-80 102 % of control | dose: 25.6 mg/kg/injection, schedule: Q04DX002 (ip), vehicle: saline with Tween-80 102 % of control | dose: 37.5 mg/kg/injection, schedule: Q01DX009 (ip), vehicle: saline with Tween-80 102 % of control | dose: 64.0 mg/kg/injection, schedule: Q04DX002 (ip), vehicle: saline with Tween-80 109 % of control | dose: 75.0 mg/kg/injection, schedule: Q01DX009 (ip), vehicle: saline with Tween-80 111 % of control | [21] 101 % of control | dose: 160.0 mg/kg/injection, schedule: Q04DX002 (ip), vehicle: saline with Tween-80 95 % of control

CCCCC(C=NCC(CCCC)(CCN1CCOCC1)c1cccc2ccccc12)(CCN1CCOCC1)c1cccc2ccccc12 (configuration not stated)
inactive: [17] 100 % of control | [19] 96 % of control | [20] 88 % of control

Cc1ccc2c(ccc(/C=C/c3ccc(O)c4ccccc34)[n+]2C)c1
inactive: [22] 95 % of control | [23] 97 % of control | [24] 96 % of control

O=C1C=C(Nc2ccc(O)cc2)c2ccccc2C1=O
inactive: dose: 3.12 mg/kg/injection, schedule: Q01DX009 (ip), vehicle: saline 107 % of control | dose: 6.25 mg/kg/injection, schedule: Q01DX009 (ip), vehicle: saline 102 % of control | dose: 12.5 mg/kg/injection, schedule: Q01DX009 (ip), vehicle: saline 103 % of control | dose: 25.0 mg/kg/injection, schedule: Q01DX009 (ip), vehicle: saline 91 % of control | [16] 103 % of control | [22] 93 % of control | [18] 95 % of control | [23] 100 % of control | [24] 90 % of control

c1cc2c3c(c1)nc(CCc1nc4cccc5c4n1CCC5)n3CCC2
inactive: dose: 25.0 mg/kg/injection, schedule: Q04DX003 (ip), vehicle: saline with Tween-80 101 % of control | dose: 50.0 mg/kg/injection, schedule: Q04DX003 (ip), vehicle: saline with Tween-80 95 % of control | [21] 93 % of control and 87 % of control | dose: 400.0 mg/kg/injection, schedule: Q04DX003 (ip), vehicle: saline with Tween-80 87 % of control

CS(=O)CCCC(=O)O (configuration not stated)
inactive: [12] 102 % of control | [1] 94 % of control | [2] 97 % of control

O=C1c2ccccc2C(=O)N1CN1CCOCC1
inactive: [12] 105 % of control | [1] 94 % of control | [2] 98 % of control

Cc1ccc(-n2c(O)c(C=N)c(=O)n(-c3ccc(C)cc3)c2=O)cc1
inactive: [13] 98 % of control | [14] 98 % of control | [15] 95 % of control

CCOC(=O)c1cccnc1NC(=O)c1ccccc1
inactive: dose: 50.0 mg/kg/injection, schedule: Q04DX002 (ip), vehicle: Klucel (hydroxypropylcellulose) (HPC) 97 % of control | dose: 100.0 mg/kg/injection, schedule: Q04DX002 (ip), vehicle: Klucel (hydroxypropylcellulose) (HPC) 97 % of control and 103 % of control | dose: 200.0 mg/kg/injection, schedule: Q04DX002 (ip), vehicle: Klucel (hydroxypropylcellulose) (HPC) 100 % of control and 101 % of control | dose: 800.0 mg/kg/injection, schedule: Q04DX002 (ip), vehicle: Klucel (hydroxypropylcellulose) (HPC) 105 % of control
